Laboratory results: publication PMC6757420, “Identifying the active components of Baihe–Zhimu decoction that ameliorate depressive disease by an effective integrated strategy: a systemic pharmacokinetics study combined with classical depression model tests” (Chinese Medicine, 2019)
Values joined by “and” are separate entries in the source; they are usually repeats but may differ in a detail not shown here. Identical values can stand only once. Counter-ions that a name gives are not always drawn. Like-named read-outs stand apart in the source and are kept apart here.

What was measured:
ICR mice [1] = assay: forced swimming test (FST); format: in vivo
Protocol: (§1) The antidepressant activity of the drugs was evaluated by classic behavioral measurements, such as the forced swimming test (FST) and tail suspension test (TST). All the ICR mice were randomly divided into several groups (n = 8) as follows: a control group with stimulation and different test groups subjected to FST and TST after the oral administration of different drugs for 8 days, including fluoxetine (10 mg/kg), BZD (3 g/kg), ZD (3 g/kg), Baihe decoction (BD, 3 g/kg), PZ (21.2 mg/kg), XZ (21.2 mg/kg), SZ (21.2 mg/kg), timosaponin BII (10 mg/kg) and timosaponin BIII (10 mg/kg).
(§2) The FST was performed according to a previously described method with minor modifications. Briefly, each mouse was individually placed in an open water-filled cylinder (H: 50 cm; Ø: 20 cm; water depth: 35 cm; temperature: 23–25 °C) and allowed to swim for a period of 6 min. The total time of immobility was recorded during the last 4 min of the testing duration. Immobility is defined as the mice floating in the water without movement. The TST was conducted as described in the literature. Briefly, the mice were suspended 20 cm above the floor for 6 min. The time of immobility was recorded after the first 2 min. Mice in a completely motionless state were considered immobile.

dopamine (DA) = assay: content of dopamine (DA) by ELISA kit; format: in vivo, ICR mice; conditions: Table 5; 10 mg/kg oral; control 171.6 ± 54.5
Protocol: as §1
(§3) The contents of dopamine (DA) and serotonin (5-HT) in the plasma were determined using ELISA Kits (Shanghai Jianglai Biotech Co., Ltd., Shanghai, China) according to the manufacturer’s instructions.

ICR mice [2] = assay: tail suspension test (TST); format: in vivo
Protocol: as §1, §2

serotonin (5-HT) = assay: content of serotonin (5-HT) by ELISA kit; format: in vivo, ICR mice; conditions: Table 5; 10 mg/kg oral; control 636.2 ± 80.1
Protocol: as §1, §3

[3] = pharmacokinetic study of five major components after oral administration of BZD (HPLC-QQQ MS); format: in vivo, Sprague–Dawley (SD) rats; conditions: for ER (liver extraction ratio): from portal vein plasma and systemic plasma
Protocol: The HPLC-QQQ MS method was developed according to a previous study in our group. Briefly, five compounds were simultaneously determined in plasma, liver and brain samples using a 1260 Series liquid chromatography system (Agilent Technologies, Palo Alto, CA, USA) coupled to a 6460 triple quadrupole mass spectrometer with an electrospray ionization source (Agilent Technologies, Palo Alto, CA, USA). Chromatographic separation was performed on an ACE Super C18 column (100 mm × 2.1 mm, 3.0 µm, Advanced Chromatography Technologies Ltd. Aberdeen, Scotland) at a temperature of 40 °C. The mobile phase consisted of water containing 0.1% formic acid (A) and acetonitrile containing 0.1% formic acid (B). The gradient program was performed as follows: 0–3 min, 92% A; 3.5–4.0 min, 88–60% A; 5.5–6 min, 60–55% A; 6.6–7 min, 55–5% A; 11–11.01 min, 5–92% A; 11.01–13.5 min, 92% A. The flow rate was set to 0.35 mL/min in the time range of 0–6.6 min and kept at 0.45 mL/min between 7 and 13.5 min. Five components were monitored in negative multiple reaction monitoring (MRM) mode. The parameters of the mass spectrometer were as follows: capillary voltage, 3500 V; nebulizer, 45 psi; gas temperature, 350 °C; gas flow rate, 12 L/min; sheath gas temperature, 400 °C; sheath gas flow rate, 8 L/min. MassHunter Workstation software (Agilent Technologies, Palo Alto, CA, USA) was used for system operation and data analysis.
All Sprague–Dawley (SD) rats and ICR mice were purchased from Shanghai SLAC Laboratory Animal Co., Ltd. and kept in the breeding room at 22 ± 2 °C and 50 ± 10% humidity in Shanghai Institute of Materia Medica (SIMM). The experimental protocols were approved by the Institutional Animal Care and Use Committee in SIMM. After 1 week of acclimation, all the SD rats were orally administered BZD (15 g/kg). The biological samples were collected from the rats after fasting for 12 h. After anaesthetization, the rats were dissected at 5 min, 15 min, 30 min, 1 h, 2 h, 4 h, 7 h, 10 h, 20 h and 40 h (n = 5 for each time-point). The hepatic portal vein plasma (2 mL) and the systemic plasma (6–8 mL) were subsequently harvested, and finally the liver and brain tissue samples were collected. The plasma sample were centrifuged at 9500×g for 5 min, and the tissue samples were washed with saline solution. All samples were stored at − 80 °C until analysis. The samples were prepared according to the method described in the previous study by our group.
A noncompartmental analysis was carried out using WinNonlin software (Pharsight 6.2, NC, USA) to calculate the PK parameters. The significance of the results in behavior assessment was analyzed by unpaired Student’s t-tests. A P value less than 0.05 was considered significant. The liver extraction ratio (ER) indicated the fraction of hepatic clearance and first-pass effect, and the calculation formula was as reported in a previous study by our group.

depressive rats = conditions: cited from earlier work
[4] = Table 4, oral administration for 8 days, n = 8, 10 mg/kg, control 118.1 ± 24.3
[5] = Table 4, oral administration for 8 days, n = 8, 10 mg/kg, control 102.0 ± 16.9
[6] = Sprague-Dawley, rat, in vivo, po, 15 g/kg
[7] = Sprague-Dawley, rat, hepatic portal vein plasma, po, 15 g/kg, portal vein plasma, rats, oral BZD 15 g/kg, n = 5
[8] = Sprague-Dawley, rat, hepatic portal vein plasma, po, 15 g/kg, portal vein plasma, rats, oral BZD 15 g/kg, n = 5, read-out: AUC0–t
[9] = Sprague-Dawley, rat, hepatic portal vein plasma, po, 15 g/kg, portal vein plasma, rats, oral BZD 15 g/kg, n = 5, read-out: Cmax
[10] = Sprague-Dawley, rat, hepatic portal vein plasma, po, 15 g/kg, portal vein plasma, rats, oral BZD 15 g/kg, n = 5, read-out: Tmax
[11] = Sprague-Dawley, rat, liver, po, 15 g/kg, liver, rats, oral BZD 15 g/kg, n = 5, read-out: Cmax
[12] = Sprague-Dawley, rat, liver, po, 15 g/kg, liver, rats, oral BZD 15 g/kg, n = 5, read-out: Tmax
[13] = Sprague-Dawley, rat, liver, po, 15 g/kg, rats, oral BZD 15 g/kg, n = 5
[14] = Sprague-Dawley, rat, systemic plasma, po, 15 g/kg, systemic plasma, rats, oral BZD 15 g/kg, n = 5, read-out: AUC0–t
[15] = Sprague-Dawley, rat, systemic plasma, po, 15 g/kg, systemic plasma, rats, oral BZD 15 g/kg, n = 5, read-out: Cmax
[16] = Sprague-Dawley, rat, systemic plasma, po, 15 g/kg, systemic plasma, rats, oral BZD 15 g/kg, n = 5, read-out: Tmax
[17] = Sprague-Dawley, rat, systemic plasma, po, 15 g/kg, rats, oral BZD 15 g/kg, n = 5
[18] = cerebellum, rats, oral BZD 15 g/kg, n = 5
[19] = hippocampus, rats, oral BZD 15 g/kg, n = 5
[20] = liver, rats, oral BZD 15 g/kg, n = 5
[21] = portal vein plasma, rats, oral BZD 15 g/kg, n = 5
[22] = systemic plasma, rats, oral BZD 15 g/kg, n = 5

SMILES	Immobility time (mean ± SD, s) FST (ICR mice [1]; [4]) [s]	Content (ng/g) DA (dopamine (DA)) [ng/g]	Immobility time (mean ± SD, s) TST (ICR mice [2]; [5]) [s]	Content (ng/g) 5-HT (serotonin (5-HT)) [ng/g]	half-life [3, 7] [h]	AUC(0-t) [3, 8] [ng·h/mL]	Cmax [3, 9] [ng/mL]	Tmax [3, 10] [h]	Cmax [3, 11] [ng/g]	Tmax [3, 12] [h]	half-life [3, 13] [h]	AUC(0-t) [3, 14] [ng·h/mL]	Cmax [3, 15] [ng/mL]	Tmax [3, 16] [h]	half-life [3, 17] [h]	ER (liver extraction ratio) ([3]; rats, oral BZD 15 g/kg) [%]	also measured
CNCCC(Oc1ccc(C(F)(F)F)cc1)c1ccccc1 (stereo not shown) [Fluoxetine, fluoxetine hydrochloride]	70.2 ± 21.2	215.9 ± 36.5	50.0 ± 22.2	731.3 ± 104.6	–	–	–	–	–	–	–	–	–	–	–	–	Immobility time (mean ± SD, s) FST (ICR mice [1]; Table 1, oral administration for 8 days, n = 8, fluoxetine 10 mg/kg, BZD, ZD, BD 3 g/kg, control 127.6 ± 40.9): 84.8 ± 15.2 s; Immobility time (mean ± SD, s) FST (ICR mice [1]; Table 2, oral administration for 8 days, n = 8, fluoxetine 10 mg/kg, SZ, PZ, XZ 21.2 mg/kg, control 134.3 ± 22.1): 82.0 ± 21.3 s; Immobility time (mean ± SD, s) TST (ICR mice [2]; Table 1, oral administration for 8 days, n = 8, fluoxetine 10 mg/kg, BZD, ZD, BD 3 g/kg, control 109.1 ± 15.5): 62.0 ± 36.2 s; Immobility time (mean ± SD, s) TST (ICR mice [2]; Table 2, oral administration for 8 days, n = 8, fluoxetine 10 mg/kg, SZ, PZ, XZ 21.2 mg/kg, control 118.6 ± 18.1): 69.5 ± 21.5 s
O=c1c2cc(O)c(O)cc2oc2cc(O)c([C@@H]3O[C@H](CO)[C@@H](O)[C@H](O)[C@H]3O)c(O)c12 [Mangiferin, mangiferin]	–	–	–	–	–	–	–	–	–	–	–	–	–	–	–	–	Cmax [3, 6]: 889.36 ± 191.49 ng/mL; Tmax [3, 6]: 1.00 h; AUC(0-t) ([3]; Sprague-Dawley, rat, in vivo, po, 15 g/kg, AUC0–t): 4020 ± 397 ng·h/mL; Cmax ([3]; Sprague-Dawley, rat, in vivo, po, 15 g/kg, Cmax): 131 ng/g and 1760 ng/mL
C[C@H]1CC[C@@]2(OC1)O[C@H]1C[C@H]3[C@@H]4CC[C@@H]5C[C@@H](O[C@@H]6O[C@H](CO)[C@H](O)[C@H](O)[C@H]6O[C@@H]6O[C@H](CO)[C@@H](O)[C@H](O)[C@H]6O)CC[C@]5(C)[C@H]4CC[C@]3(C)[C@H]1[C@@H]2C [Timosaponin AIII, timosaponin AIII]	–	–	–	–	10.3	583 ± 105	61.8 ± 25.6	4	9360 ± 244	20	12.2	156 ± 21.6	16 ± 5.16	4	11.2	73.20	ER (liver extraction ratio) ([3]; rats, oral BZD 15 g/kg, listed as timosaponin AIII): 73.21%
C[C@@H](CC[C@@]1(O)O[C@H]2C[C@H]3[C@@H]4CC[C@@H]5C[C@@H](O[C@@H]6O[C@H](CO)[C@H](O)[C@H](O)[C@H]6O[C@@H]6O[C@H](CO)[C@@H](O)[C@H](O)[C@H]6O)CC[C@]5(C)[C@H]4CC[C@]3(C)[C@H]2[C@@H]1C)CO[C@@H]1O[C@H](CO)[C@@H](O)[C@H](O)[C@H]1O [Timosaponin BII, timosaponin BII]	72.1 ± 19.6	196.9 ± 56.7	48.2 ± 23.1	716.5 ± 90.4	119	1090 ± 184	880 ± 160	0.25	302 ± 102	0.08	116	976 ± 254	277 ± 48.4	0.25	35.8	10.88	Cmax ([3]; Sprague-Dawley, rat, cerebellum, po, 15 g/kg, cerebellum, rats, oral BZD 15 g/kg, n = 5, read-out: Cmax): 1170 ± 93.4 ng/g; Tmax ([3]; Sprague-Dawley, rat, cerebellum, po, 15 g/kg, cerebellum, rats, oral BZD 15 g/kg, n = 5, read-out: Tmax): 0.25 h; half-life ([3]; Sprague-Dawley, rat, cerebellum, po, 15 g/kg, rats, oral BZD 15 g/kg, n = 5): 16.2 h; Cmax ([3]; Sprague-Dawley, rat, hippocampus, po, 15 g/kg, hippocampus, rats, oral BZD 15 g/kg, n = 5, read-out: Cmax): 372 ± 154 ng/g; Tmax ([3]; Sprague-Dawley, rat, hippocampus, po, 15 g/kg, hippocampus, rats, oral BZD 15 g/kg, n = 5, read-out: Tmax): 10 h; half-life ([3]; Sprague-Dawley, rat, hippocampus, po, 15 g/kg, rats, oral BZD 15 g/kg, n = 5): 27.4 h; ER (liver extraction ratio) ([3]; rats, oral BZD 15 g/kg, listed as timosaponin BII): 10.88%; antidepressant effect (depressive rats; depressive rats, likely related to the content of 5-HT in the brain): significant antidepressant effect
CC1=C(CC[C@H](C)CO[C@@H]2O[C@H](CO)[C@@H](O)[C@H](O)[C@H]2O)O[C@H]2C[C@H]3[C@@H]4CC[C@@H]5C[C@@H](O[C@@H]6O[C@H](CO)[C@H](O)[C@H](O)[C@H]6O[C@@H]6O[C@H](CO)[C@@H](O)[C@H](O)[C@H]6O)CC[C@]5(C)[C@H]4CC[C@]3(C)[C@@H]12 [Timosaponin BIII, timosaponin BIII]	68.6 ± 23.2	191.3 ± 69.8	58.4 ± 15.6	705.6 ± 47.7	–	–	–	–	–	–	–	–	–	–	–	11.57	Cmax [3, 18]: 349.41 ± 34.90 ng/g; T1/2 [3, 18]: 20.65 h; Tmax [3, 18]: 0.25 h; ER (liver extraction ratio) ([3]; rats, oral BZD 15 g/kg, listed as timosaponin BIII): 11.57%; Cmax [3, 19]: 198.23 ± 122.31 ng/g; T1/2 [3, 19]: 1.52 h; Tmax [3, 19]: 1.00 h; Cmax [3, 20]: 158.66 ± 22.12 ng/g; T1/2 [3, 20]: 13.81 h; Tmax [3, 20]: 0.08 h; AUC0–t [3, 21]: 369.20 ± 74.63 ng/mL; Cmax [3, 21]: 226.39 ± 43.92 ng/mL; T1/2 [3, 21]: 16.59 h; Tmax [3, 21]: 0.25 h; AUC0–t [3, 22]: 326.47 ± 54.29 ng/mL; Cmax [3, 22]: 114.14 ± 13.38 ng/mL; T1/2 [3, 22]: 22.82 h; Tmax [3, 22]: 0.25 h; antidepressant effect (depressive rats; rats, by regulating inflammatory cytokines, BNDF signaling and synaptic plasticity): significantly ameliorated depressive effects
